The values below come from PMC7497403, “Development of Potent PfCLK3 Inhibitors Based on TCMDC-135051 as a New Class of Antimalarials” (Journal of Medicinal Chemistry, 2020).

Series [1] relates to P. falciparum 3D7. The series is described as follows: Parasite growth inhibition (Sybr Green I) in 3D7 parasites. The settings on record: for fold decrease in parasite growth inhibition: 3D7 parasites, relative to TCMDC-135051 (1); for EC50: Plasmodium falciparum, asexual 3D7 (chloroquine-sensitive) P. falciparum, ± SEM, n = 3, read-out: 3D7 pEC50 (converted); for 3D7 ED50: Table 2, asexual 3D7 P. falciparum. The class given is cell-based.

Series [2] concerns the target T1, full-length PfCLK3 recombinant protein (Plasmodium falciparum, UniProt Q8IIL5).
T1 sequence (Q8IIL5 1-699): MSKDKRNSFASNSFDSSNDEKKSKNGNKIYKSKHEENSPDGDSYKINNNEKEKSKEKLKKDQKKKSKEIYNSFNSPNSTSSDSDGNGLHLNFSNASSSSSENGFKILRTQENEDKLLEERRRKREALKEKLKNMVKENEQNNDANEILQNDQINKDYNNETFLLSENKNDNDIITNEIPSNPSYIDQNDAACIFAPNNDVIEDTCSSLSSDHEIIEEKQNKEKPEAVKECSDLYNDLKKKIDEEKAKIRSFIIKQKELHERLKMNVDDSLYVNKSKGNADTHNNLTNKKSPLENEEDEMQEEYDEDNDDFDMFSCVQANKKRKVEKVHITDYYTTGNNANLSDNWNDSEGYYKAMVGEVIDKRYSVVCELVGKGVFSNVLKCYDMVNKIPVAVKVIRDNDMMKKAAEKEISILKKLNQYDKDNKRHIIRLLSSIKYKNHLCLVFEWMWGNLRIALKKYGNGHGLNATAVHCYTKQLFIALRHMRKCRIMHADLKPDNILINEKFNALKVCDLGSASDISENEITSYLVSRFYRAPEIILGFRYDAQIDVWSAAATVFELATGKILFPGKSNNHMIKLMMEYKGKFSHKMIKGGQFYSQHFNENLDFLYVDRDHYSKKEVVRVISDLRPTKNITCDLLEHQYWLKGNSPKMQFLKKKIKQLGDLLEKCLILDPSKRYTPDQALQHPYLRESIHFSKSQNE
The series is described as follows: TR-FRET PfCLK3 in vitro kinase assay. The class given is biochemical, P. falciparum. The following applies: for IC50: TR-FRET, full-length recombinant PfCLK3, ± SEM, n = 3, read-out: PfCLK3 pIC50 (converted). The protocol:
First, in a 10 μL reaction volume, 5 μL of twice the required enzyme concentration (50 nM) and 2.5 μL of four times the required substrate concentration mix containing cold ATP, and the serially diluted drugs were mixed in a black 384-plate well plate and incubated at 37 °C for 1 h. The reaction was stopped after incubation by adding the stopping/detection solution (containing 30 mM EDTA in 1× Lance detection buffer and 3 nM Europium-labeled antiphospho-specific antibody) and incubated for another hour at RT before phosphorylation signals were measured using the ClarioStar.
For each test compound, percent inhibition (response) which was calculated using the formula: [drawing 3] was plotted against the log molar concentration of compound to calculate the IC50 (potency) of each inhibitor molecule and plotted using GraphPad prism software. All experiments were carried out in triplicates, and the data presented were the standard error of the mean (SEM) of three independent experiments run in triplicates.
PfCLK3 phosphorylation of substrate results in the Europium-labeled antiphospho-specific antibody recognizing the phosphorylated site on the substrate. The Europium donor fluorophore is excited at 320 or 340 nm, and energy is transferred to the ULight acceptor dye on the substrate, which finally results in the emission of light at 665 nm. The level of ULight peptide phosphorylation correlates with the intensity of the emission. For normalization, a no kinase and a no inhibitor reaction wells were included, and all experiments were conducted in triplicates. Drug dilutions, protein concentrations, and incubation times were the same for easy comparison of results.
(In general: TR-FRET usually uses a lanthanide donor and a delayed reading to cut background.)

A short description of series [3]: Microsomal stability. The class given is in vitro ADME. The settings on record: mouse liver microsomes; 1 μM compound. The method, then:
Compounds were incubated at 37 °C at a concentration of 1 μM with CD1 mouse liver microsomes (GIBCO, Thermo Fisher Scientific) in a suspension of 50 mM potassium phosphate buffer (pH 7.4) with a final protein concentration of 0.5 mg/mL. The reaction was started by the addition of excess NADPH and then quenched at several time points starting from time 0, then at 3, 6, 9, 15, and 30 min addition of acetonitrile to an aliquot of the sample. An internal standard was added to each sample before centrifugation to remove any precipitates before monitoring loss of parent compound by HPLC analysis using Shimadzu LC-20A (Shimadzu, UK). Prism (Graphpad, USA) was used to fit an exponential decay for substrate depletion and subsequently rate constant (k) from the peak area of the parent compound to the internal standard at each time point.
For orientation: Liver microsomes are vesicles of endoplasmic reticulum, rich in cytochrome P450 enzymes.

Series [4] deals with P. falciparum clinical field isolates from The Gambia. The series is described as follows: Parasite reduction rate (PRR) assay with clinical isolates. It is filed as cell-based. The settings on record: all isolates except GB0020, GB002 and GB0026; at EC50 concentration (18 nM).

For the molecule `COc1ccc(CN(C)C)cc1-c1cc2c(-c3ccc(C(=O)O)c(C(C)C)c3)ccnc2[nH]1` [analogue 8a, 4-(2-{5-[(Dimethylamino)methyl]-2-methoxyphenyl}-1H-pyrrolo[2,3-b]pyridin-4-yl)-2-(propan-2-yl)benzoic Acid], in series [1], the “fold decrease in parasite growth inhibition” value is recorded as 2 fold and the EC50 is 501 nM. Also, in series [2], the IC50 is 31.6 nM. Further, the “clint (in vitro intrinsic clearance)” value in series [3] is reported as 2.53 mL/min/g liver.
On to `COc1ccc(CN2CCCC2)cc1-c1cc2c(-c3ccc(C(=O)O)c(C(C)C)c3)ccnc2[nH]1` [analogue 8b, 4-(2-{2-Methoxy-5-[(pyrrolidin-1-yl)methyl]phenyl}-1H-pyrrolo[2,3-b]pyridin-4-yl)-2-(propan-2-yl)benzoic Acid], for which, in series [1], the “fold decrease in parasite growth inhibition” value amounted to 2 fold. For the same molecule, the “clint (in vitro intrinsic clearance)” value in series [3] worked out at 1.94 mL/min/g liver.
`COc1ccc(CN2CCOCC2)cc1-c1cc2c(-c3ccc(C(=O)O)c(C(C)C)c3)ccnc2[nH]1` [analogue 8c, 4-(2-{2-Methoxy-5-[(morpholin-4-yl)methyl]phenyl}-1H-pyrrolo[2,3-b]pyridin-4-yl)-2-(propan-2-yl)benzoic Acid]: in series [2], the IC50 is 10 nM. The “clint (in vitro intrinsic clearance)” value in series [3] was found to be 1.60 mL/min/g liver.
`CCOC(=O)c1ccc(-c2ccnc3[nH]c(-c4cc(CN(CC)CC)ccc4OC)cc23)cc1C(C)C` [analogue 9, Ethyl 4-(2-(5-((Diethylamino)methyl)-2-methoxyphenyl)-1H-pyrrolo[2,3-b]pyridin-4-yl)-2-isopropylbenzoate]: in series [3], the “clint (in vitro intrinsic clearance)” value is reported as 16.06 mL/min/g liver.
Turning to `COc1ccc(CN)cc1-c1cc2c(-c3ccc(C(=O)O)c(C(C)C)c3)ccnc2[nH]1` [analogue 12, 4-{2-[5-(Aminomethyl)-2-methoxyphenyl]-1H-pyrrolo[2,3-b]pyridin-4-yl}-2-(propan-2-yl)benzoic Acid], the “fold less potent in vitro (PfCLK3)” value in series [2] (relative to TCMDC-135051 (1)) is 2 fold. The “clint (in vitro intrinsic clearance)” value in series [3] came to 2.92 mL/min/g liver.
Take `COc1ccccc1-c1cc2c(-c3ccc(C(=O)O)c(C(C)C)c3)ccnc2[nH]1` [analogue 15, 4-[2-(2-Methoxyphenyl)-1H-pyrrolo[2,3-b]pyridin-4-yl]-2-(propan-2-yl)benzoic Acid]: the “fold decrease in parasite growth inhibition” value in series [1] is 7 fold. The “clint (in vitro intrinsic clearance)” value in series [3] is reported as 2.54 mL/min/g liver.
For the molecule `CCN(CC)Cc1ccc(O)c(-c2cc3c(-c4ccc(C(=O)O)c(C(C)C)c4)ccnc3[nH]2)c1` [analogue 19, 4-(2-(5-((Diethylamino)methyl)-2-hydroxyphenyl)-1H-pyrrolo[2,3-b]pyridin-4-yl)-2-isopropylbenzoic Acid], the EC50 in series [1] is 3160 nM. For the same molecule, in series [2], the IC50 is 20 nM. The “clint (in vitro intrinsic clearance)” value in series [3] is listed as 1.94 mL/min/g liver.
With `CCN(CC)Cc1cccc(-c2cc3c(-c4ccc(C(=O)O)c(C(C)C)c4)ccnc3[nH]2)c1` [analogue 23, 4-(2-{3-[(Diethylamino)methyl]phenyl}-1H-pyrrolo[2,3-b]pyridin-4-yl)-2-(propan-2-yl)benzoic Acid], the “fold decrease in parasite growth inhibition” value in series [1] is 1.5 fold. Besides, the “clint (in vitro intrinsic clearance)” value in series [3] is reported as 0.85 mL/min/g liver.
With `CCN(CC)Cc1cccc(-c2cc3c(-c4ccc(C(=O)O)c(C(C)C)c4)ccnc3[nH]2)c1OC` [analogue 27, 4-(2-(3-((Diethylamino)methyl)-2-methoxyphenyl)-1H-pyrrolo[2,3-b]pyridin-4-yl)-2-isopropylbenzoic Acid], the “fold decrease in parasite growth inhibition” value in series [1] worked out at 15 fold. The IC50 in series [2] is 20 nM. The “fold increase in in vitro kinase activity (PfCLK3)” value in series [2] (relative to TCMDC-135051 (1)) came to 2 fold. Besides, in series [3], the “clint (in vitro intrinsic clearance)” value came out at 1.65 mL/min/g liver.
`CCN(CC)Cc1ccc(OC)c(-c2cc3c(-c4ccc(C(=O)O)c(C)c4)ccnc3[nH]2)c1` [analogue 28, 4-(2-(5-((Diethylamino)methyl)-2-methoxyphenyl)-1H-pyrrolo[2,3-b]pyridin-4-yl)-2-methylbenzoic Acid]: in series [1], the “fold decrease in parasite growth inhibition” value was found to be 6 fold and the “3D7 ED50” value is listed as 1185 nM. Also, in series [3], the “clint (in vitro intrinsic clearance)” value amounted to 1.33 mL/min/g liver.
On to `CCN(CC)Cc1ccc(OC)c(-c2cc3c(-c4ccc(C(=O)O)cc4)ccnc3[nH]2)c1` [analogue 29, 4-(2-(5-((Diethylamino)methyl)-2-methoxyphenyl)-1H-pyrrolo[2,3-b]pyridin-4-yl)benzoic Acid], for which, in series [1], the “fold decrease in parasite growth inhibition” value worked out at 16 fold and the “3D7 ED50” value came out at 3272 nM. Also, the IC50 in series [2] was 31.6 nM. The “clint (in vitro intrinsic clearance)” value in series [3] is 11.01 mL/min/g liver.
In the case of `CCN(CC)Cc1ccc(OC)c(-c2cc3c(-c4ccc(-c5nnn[nH]5)c(C(C)C)c4)ccnc3[nH]2)c1` [analogue 30, N-Ethyl-N-(3-(4-(3-isopropyl-4-(1H-tetrazol-5-yl)phenyl)-1H-pyrrolo[2,3-b]pyridin-2-yl)-4-methoxybenzyl)ethanamine], the “clint (in vitro intrinsic clearance)” value in series [3] came to 2.32 mL/min/g liver.
Turning to `CCN(CC)Cc1ccc(OC)c(-c2cc3c(-c4cccc(C(C)C)c4)ccnc3[nH]2)c1` [analogue 31, N-Ethyl-N-(3-(4-(3-isopropylphenyl)-1H-pyrrolo[2,3-b]pyridin-2-yl)-4-methoxybenzyl)ethanamine], the IC50 in series [2] was 1000 nM. The “clint (in vitro intrinsic clearance)” value in series [3] came out at 9.54 mL/min/g liver.
As for `CCc1nc(N)nc(N)c1-c1ccc(Cl)cc1` [pyrimethamine, reference compound], in series [4], the “reduction in parasitemia (PRR)” value is “at least 70%”.
